# According to patent US20230225990A1, “DIMETHYL SULFONE FOR TREATMENT OF CHRONICALLY HEAT STRESSED POULTRY” (Evonik Operations GmbH, priority 2020, published 2023):
# Marks after values point to notes of the source that are not given here.
# Tests used:
# [1] = tested on: male broilers subjected to chronic cyclic heat stress; assay: Body weight and rectal temperature of birds sampled at d-23, d-25 and d-39; format: in vivo, broiler chickens (Ross 308)
# Method: (§1) Sampling of one bird per pen (with weight close to average weight of the pen) on d-23, d-25 and on d-39 (on d-25 and d-39, sampling starts after >3 h of heat stress that day; 108 birds in total) • malondialdehyde, HSP70 (Chicken Heat Shock Protein 70, Hsp-70 ELISA Kit) Cusabio Code CSB-E11196Ch), HSP90 (Chicken Heat Shock Protein 90, HSP-90 ELISA Kit; Cusabio Code CSB-E12873C), GPx, SOD in plasma; GSH/GSSG in erythrocytes; and T3, T4 and nitric oxide in serum • Breast muscle and liver: malondialdehyde, AOX (GPx, SOD), GSH/GSSG
# (§2) For physiological measurements, time of sampling (representing the number of minutes between the beginning of heat stress and the precise moment of sampling of the bird that day), if appropriate, was included in the model as a covariable if significant as well. Orthogonal contrasts were applied to test for linear and quadratic effects upon incremental levels of DMS supplementation in the diet. Means are given as estimated marginal means (least square means). Means were separated using the Tukey post-hoc test. Differences were considered significant when p<0.05 and as a trend for significance when p<0.1.
# At d-23, d-25 and d39, one bird per pen (with weight close to average weight of the pen) was sampled. On d-25 and d-39, sampling started after >3 h of heat stress that day. Thus, in total 108 birds were sampled, and various endpoints were determined in several tissues. To recall, finisher period started on d-21, while the heat stress protocol was implemented from d-24 onwards. It means that d-23 was the last day prior to heat stress and d-25 the second day whereby birds were subjected to high temperatures. Body weights on d-23 and d-25 (Table 7) were naturally higher than those reported on d-21 (Table 3), but not affected by treatment. Body weights at d-39 for sampled birds are very close to body weights for d-39 shown in Table 3, which confirms that birds with weight close to average weight of the pen were selected. Again, this was not affected by supplementation with DMS. Rectal temperature of sampled birds on d-23 represents values for thermo-neutral conditions, and thus ranged between 41.1 and 41.3° C. without treatment differences (FIG. 15). However, on d-25 rectal temperatures were largely elevated and obviously affected by diet (P<0.05). […] Nonetheless, observations are in line with findings on d-38 (Table 4).
# [2] = tested on: male broilers subjected to chronic cyclic heat stress; assay: Parameters in blood of birds sampled at d-23, d-25 and d-39; format: in vivo, broiler chickens (Ross 308); details: for GSSG/GSH / Glutathione (GSH) / Oxidized glutathione (GSSG): erythrocytes; for Glutathione peroxidase / Heat shock protein 70 / Malondialdehyde / Super oxide dismutase: plasma; for Nitric oxide / T3 (triiodothyronine) / T3/T4 / T4 (thyroxine): serum
# Method: as §1, §2
# Heat shock protein 70 and heat shock protein 90 were determined in plasma employing the competitive inhibition enzyme immunoassay technique (HSP70, Chicken Heat Shock Protein 70, Hsp-70 ELISA Kit; Cusabio Code CSB-E11196Ch) and the quantitative sandwich enzyme immunoassay technique (HSP90, Chicken Heat Shock Protein 90, HSP-90 ELISA Kit; Cusabio Code CSB-E12873C), respectively. Regarding HSP-90 very low absorbances were found and in most cases fell below the lowest standard dilution. Values were then typically less than 0.39 ng/mL, the minimum detectable dose as mentioned in the user manual. For that reason, no data for HSP-90 could be reported here. Opposite to that, HSP-70 worked properly and values were all above sensitivity of 0.125 ng/mL. No treatments effects on HSP-70 could be perceived on either sampling day, apart from a trend for linear reduction on d-23. […] It must be noted that large variation across samples was found on d-39. Thyroxine (T4) could not be detected on d-23, while higher values were found on d-25 and d-39. A trend for linear increase on d-39 by higher DMS dose was observed. […] It means that conversion efficiency was not altered by diet. Irrespective of treatment is the sharp reduction in circulating T3 levels as birds age and thus subjected for long period to heat stress. As indicated above, this can be regarded as an adaptation to reduce body metabolism and hitherto metabolic heat production, and apparently birds fed DMS seems to be less affected. Nitric oxide was not different across treatments at any sampling day. Further, interesting changes in malondialdehyde, a marker of lipid peroxidation, were found. […] The higher GSH in DMS-fed chickens thus promotes antioxidant function and redox homeostasis. However, no relation could be established between plasma malondialdehyde and erythrocyte glutathione (FIG. 17).
# [3] = 0.2% DMS in diet (T3), sampled birds d-25
compound,measurement,setting,value
"CS(C)(=O)=O [DMS, dimethyl sulfone]",Body weight,"[1]; 0.1% DMS in diet (T2), sampled birds d-23",1361 g
same,Rectal temperature,"[1]; 0.1% DMS in diet (T2), sampled birds d-23 (prior to heat stress)",41.3 °C
same,Body weight,"[1]; 0.1% DMS in diet (T2), sampled birds d-25",1544 g
same,Rectal temperature,"[1]; 0.1% DMS in diet (T2), sampled birds d-25, during heat stress",42.5^b ° C.
same,Body weight,"[1]; 0.1% DMS in diet (T2), sampled birds d-39",3097 g
same,Rectal temperature,"[1]; 0.1% DMS in diet (T2), sampled birds d-39, during heat stress",42.6 °C
same,Body weight,"[1]; 0.2% DMS in diet (T3), sampled birds d-23",1352 g
same,Rectal temperature,"[1]; 0.2% DMS in diet (T3), sampled birds d-23 (prior to heat stress)",41.1 °C
same,Body weight,[1]; [3],1536 g
same,Rectal temperature lower than control,[1]; [3],0.5 °C
same,Rectal temperature,"[1]; 0.2% DMS in diet (T3), sampled birds d-25, during heat stress",42.3^b ° C.
same,Body weight,"[1]; 0.2% DMS in diet (T3), sampled birds d-39",3068 g
same,Rectal temperature,"[1]; 0.2% DMS in diet (T3), sampled birds d-39, during heat stress",42.3 °C
same,GSSG/GSH,"[2]; 0.1% DMS in diet (T2), d-23",0.015
same,Glutathione (GSH),"[2]; 0.1% DMS in diet (T2), d-23",1.07 µmol/mL
same,Oxidized glutathione (GSSG),"[2]; 0.1% DMS in diet (T2), d-23",0.017 µmol/mL
same,GSSG/GSH,"[2]; 0.1% DMS in diet (T2), d-25",0.017^a
same,Glutathione (GSH),"[2]; 0.1% DMS in diet (T2), d-25",0.59 µmol/mL
same,Oxidized glutathione (GSSG),"[2]; 0.1% DMS in diet (T2), d-25",0.010 µmol/mL
same,GSSG/GSH,"[2]; 0.1% DMS in diet (T2), d-39",0.017
same,Glutathione (GSH),"[2]; 0.1% DMS in diet (T2), d-39",0.64^ab μmol/mL
same,Oxidized glutathione (GSSG),"[2]; 0.1% DMS in diet (T2), d-39",0.011 µmol/mL
same,Glutathione peroxidase,"[2]; 0.1% DMS in diet (T2), d-23",0.82 U/mL
same,Heat shock protein 70,"[2]; 0.1% DMS in diet (T2), d-23",1.69 ng/mL
same,Malondialdehyde,"[2]; 0.1% DMS in diet (T2), d-23",14.4 nmol/mL
same,Super oxide dismutase,"[2]; 0.1% DMS in diet (T2), d-23",84.1 % inhibition
same,Glutathione peroxidase,"[2]; 0.1% DMS in diet (T2), d-25",0.84 U/mL
same,Heat shock protein 70,"[2]; 0.1% DMS in diet (T2), d-25",1.07 ng/mL
same,Malondialdehyde,"[2]; 0.1% DMS in diet (T2), d-25",14.3 nmol/mL
same,Super oxide dismutase,"[2]; 0.1% DMS in diet (T2), d-25",81.3 % inhibition
same,Glutathione peroxidase,"[2]; 0.1% DMS in diet (T2), d-39",0.97 U/mL
same,Heat shock protein 70,"[2]; 0.1% DMS in diet (T2), d-39",2.77 ng/mL
same,Malondialdehyde,"[2]; 0.1% DMS in diet (T2), d-39",15.7 nmol/mL
same,Super oxide dismutase,"[2]; 0.1% DMS in diet (T2), d-39",79.5 % inhibition
same,Nitric oxide,"[2]; 0.1% DMS in diet (T2), d-23",6.02 µmol/L
same,T3 (triiodothyronine),"[2]; 0.1% DMS in diet (T2), d-23",2.43^a μg/L
same,Nitric oxide,"[2]; 0.1% DMS in diet (T2), d-25",4.31 µmol/L
same,T3 (triiodothyronine),"[2]; 0.1% DMS in diet (T2), d-25",1.74 µg/L
same,T3/T4,"[2]; 0.1% DMS in diet (T2), d-25",0.342
same,T4 (thyroxine),"[2]; 0.1% DMS in diet (T2), d-25",0.53 µg/dL
same,Nitric oxide,"[2]; 0.1% DMS in diet (T2), d-39",3.84 µmol/L
same,T3 (triiodothyronine),"[2]; 0.1% DMS in diet (T2), d-39",1.10 µg/L
same,T3/T4,"[2]; 0.1% DMS in diet (T2), d-39",0.193
same,T4 (thyroxine),"[2]; 0.1% DMS in diet (T2), d-39",0.60 µg/dL
same,GSSG/GSH,"[2]; 0.2% DMS in diet (T3), d-23",0.018
same,Glutathione (GSH),"[2]; 0.2% DMS in diet (T3), d-23",1.25 µmol/mL
same,Oxidized glutathione (GSSG),"[2]; 0.2% DMS in diet (T3), d-23",0.023 µmol/mL
same,GSSG/GSH,"[2]; 0.2% DMS in diet (T3), d-25",0.013^b
same,Glutathione (GSH),"[2]; 0.2% DMS in diet (T3), d-25",0.70 µmol/mL
same,Oxidized glutathione (GSSG),"[2]; 0.2% DMS in diet (T3), d-25",0.009 µmol/mL
same,GSSG/GSH,"[2]; 0.2% DMS in diet (T3), d-39",0.015
same,Glutathione (GSH),"[2]; 0.2% DMS in diet (T3), d-39",0.67^a μmol/mL
same,Oxidized glutathione (GSSG),"[2]; 0.2% DMS in diet (T3), d-39",0.010 µmol/mL
same,Glutathione peroxidase,"[2]; 0.2% DMS in diet (T3), d-23",0.92 U/mL
same,Heat shock protein 70,"[2]; 0.2% DMS in diet (T3), d-23",1.00 ng/mL
same,Malondialdehyde,"[2]; 0.2% DMS in diet (T3), d-23",14.2 nmol/mL
same,Super oxide dismutase,"[2]; 0.2% DMS in diet (T3), d-23",80.4 % inhibition
same,Glutathione peroxidase,"[2]; 0.2% DMS in diet (T3), d-25",0.86 U/mL
same,Heat shock protein 70,"[2]; 0.2% DMS in diet (T3), d-25",1.08 ng/mL
same,Malondialdehyde,"[2]; 0.2% DMS in diet (T3), d-25",13.2 nmol/mL
same,Super oxide dismutase,"[2]; 0.2% DMS in diet (T3), d-25",84.1 % inhibition
same,Glutathione peroxidase,"[2]; 0.2% DMS in diet (T3), d-39",1.09 U/mL
same,Heat shock protein 70,"[2]; 0.2% DMS in diet (T3), d-39",4.23 ng/mL
same,Malondialdehyde,"[2]; 0.2% DMS in diet (T3), d-39",14.9 nmol/mL
same,Super oxide dismutase,"[2]; 0.2% DMS in diet (T3), d-39",87.1 % inhibition
same,Nitric oxide,"[2]; 0.2% DMS in diet (T3), d-23",6.06 µmol/L
same,T3 (triiodothyronine),"[2]; 0.2% DMS in diet (T3), d-23",2.06^b μg/L
same,Nitric oxide,"[2]; 0.2% DMS in diet (T3), d-25",4.48 µmol/L
same,T3 (triiodothyronine),"[2]; 0.2% DMS in diet (T3), d-25",1.72 µg/L
same,T3/T4,"[2]; 0.2% DMS in diet (T3), d-25",0.351
same,T4 (thyroxine),"[2]; 0.2% DMS in diet (T3), d-25",0.50 µg/dL
same,Nitric oxide,"[2]; 0.2% DMS in diet (T3), d-39",3.14 µmol/L
same,T3 (triiodothyronine),"[2]; 0.2% DMS in diet (T3), d-39",1.12 µg/L
same,T3/T4,"[2]; 0.2% DMS in diet (T3), d-39",0.180
same,T4 (thyroxine),"[2]; 0.2% DMS in diet (T3), d-39",0.63 µg/dL
